Assay results reported in patent publication US11261177B2, “Benzoxazinone derivatives useful as herbicides” (REDAG CROP PROTECTION LTD, priority 2017, dated 2022).

Assays:
Assay type in all cases: in vivo
[1] = tested on: Stellaria media—Chickweed; assay: Post-emergence herbicidal assay, 96 cell trays, glasshouse; conditions: 168 h, second trial (Table 2), assessed 7 days after treatment, read-out: % control of plant growth; for pest or weed control at 200 g/ha: 0.2 kg/ha; for pest or weed control at 1000 g/ha: 1 kg/ha; for pest or weed control at 5000 g/ha: 5 kg/ha
Experimental: (§1) The compounds were screened at three concentrations (0.2, 1 and 5 kg/ha) against 2 weed species (Stellaria media—Chickweed and Lolium perenne). The seeds were sown in the cells of 96 cell trays (4-6 seeds per cell). For the pre-emergence assay, 75 μL of a suspension of the test compound, at the above doses, was added on top of the soil 1 day after sowing. For the post-emergence assay, the seedlings were sprayed with 200 μL of a suspension of the test compound two weeks after sowing. The formulation used is 25% acetone and 75% water/0.01% Tween 20. Each treatment was replicated three times. The plants were kept in a glasshouse (uncontrolled conditions) and assessed 7 days after treatment. A small number of compounds were tested in a first trial. A larger number of compounds were tested in a second trial. The assessment was based on the % control of plant growth in each cell.

Lolium perenne [2] = assay: as above; conditions: 168 h, second trial (Table 2), Lollium, assessed 7 days after treatment, read-out: % control of plant growth; for pest or weed control at 200 g/ha: 0.2 kg/ha; for pest or weed control at 1000 g/ha: 1 kg/ha; for pest or weed control at 5000 g/ha: 5 kg/ha
Experimental: as §1

[3] = tested on: Stellaria media—Chickweed; assay: Pre-emergence herbicidal assay, 96 cell trays, glasshouse; conditions: 168 h, second trial (Table 2), assessed 7 days after treatment, read-out: % control of plant growth; for pest or weed control at 200 g/ha: 0.2 kg/ha; for pest or weed control at 1000 g/ha: 1 kg/ha; for pest or weed control at 5000 g/ha: 5 kg/ha
Experimental: as §1

Lolium perenne [4] = assay: as above; conditions: 168 h, second trial (Table 2), Lollium, assessed 7 days after treatment, read-out: % control of plant growth; for pest or weed control at 200 g/ha: 0.2 kg/ha; for pest or weed control at 1000 g/ha: 1 kg/ha; for pest or weed control at 5000 g/ha: 5 kg/ha
Experimental: as §1

SMILES | pest or weed control at 200 g/ha [1] | pest or weed control at 1000 g/ha [1] | pest or weed control at 5000 g/ha [1] | pest or weed control at 200 g/ha (Lolium perenne [2]) | pest or weed control at 1000 g/ha (Lolium perenne [2]) | pest or weed control at 5000 g/ha (Lolium perenne [2]) | pest or weed control at 200 g/ha [3] | pest or weed control at 1000 g/ha [3] | pest or weed control at 5000 g/ha [3] | pest or weed control at 200 g/ha (Lolium perenne [4]) | pest or weed control at 1000 g/ha (Lolium perenne [4]) | pest or weed control at 5000 g/ha (Lolium perenne [4])
COC(=O)C(C)N1C(=O)C2(CC2)Oc2cc(F)c(N3C(=O)C=C(C(F)(F)F)C3=O)cc21 (stereo not drawn) [Example 17] | < 20% | 20 to 80% | 20 to 80% | < 20% | < 20% | < 20% | 20 to 80% | 20 to 80% | 80 to 100% | < 20% | 20 to 80% | 20 to 80%
CCOC(=O)C(C)N1C(=O)C2(CC2)Oc2cc(F)c(N3C(=O)C=C(C(F)(F)F)C3=O)cc21 (stereo not drawn) [Example 20] | 20 to 80% | 80 to 100% | 80 to 100% | < 20% | < 20% | < 20% | < 20% | 20 to 80% | 20 to 80% | < 20% | < 20% | < 20%
CCCN1C(=O)C2(CC2)Oc2cc(F)c(N3C(=O)c4ccc(F)cc4C3=O)cc21 [Example 22] | 80 to 100% | 80 to 100% | 80 to 100% | 20 to 80% | 20 to 80% | 80 to 100% | 80 to 100% | 80 to 100% | 80 to 100% | < 20% | 20 to 80% | 20 to 80%
C#CCN1C(=O)C2(CCC2)Oc2cc(F)c(N3C(=O)c4ccc(F)cc4C3=O)cc21 [Example 23] | 80 to 100% | 80 to 100% | 80 to 100% | < 20% | < 20% | < 20% | < 20% | 80 to 100% | 80 to 100% | < 20% | < 20% | 20 to 80%
C#CCN1C(=O)C2(CCC2)Oc2cc(F)c(N3C(=O)C=C(C(F)(F)F)C3=O)cc21 [Example 24] | < 20% | < 20% | < 20% | < 20% | < 20% | < 20% | < 20% | 20 to 80% | 20 to 80% | < 20% | 20 to 80% | 20 to 80%
C#CCN1C(=O)C2(CN(C(=O)OCc3ccccc3)C2)Oc2cc(F)c(N3C(=O)c4ccc(F)cc4C3=O)cc21 [Example 25] | < 20% | < 20% | < 20% | < 20% | < 20% | < 20% | 20 to 80% | 20 to 80% | 20 to 80% | < 20% | < 20% | < 20%
O=C1c2ccc(F)cc2C(=O)N1c1cc2c(cc1F)OC1(CC1)C(=O)N2CC#CI [Example 30, 5-Fluoro-2-(7-fluoro-4-(3-iodoprop-2-yn-1-yl)-3-oxo-3,4-dihydrospiro[benzo[b][1,4]oxazine-2,1′-cyclopropan]-6-yl)isoindoline-1,3-dione] | 80 to 100% | 80 to 100% | 80 to 100% | < 20% | < 20% | < 20% | 80 to 100% | 80 to 100% | 80 to 100% | 20 to 80% | 20 to 80% | 80 to 100%
